# Measurements taken from patent US20080009418A1, “Selective Inhibitors” (Alchemia LTD., priority 2004, published 2008).
# Key:
# Human δ-opioid (DOP) = molecular target: T1, Human δ-opioid (DOP) (Homo sapiens, UniProt P41143); experiment: Radioligand binding, human δ-opioid (DOP) membranes, FlashPlate, [3H]-Bremazocine; conditions: compound at 10 μM, [3H]-Bremazocine
# T1 construct: purchased Perkin Elmer Biosignal
# Summary of the method: (§1)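 Cloned human receptor membranes were coated onto FlashPlate wells and incubated with radioligand and compound (added from a 0.5 mM DMSO daughter plate) for 1 hour at room temperature in the dark. Scintillation counting gave percent inhibition, with DMSO defining total and reference ligand defining non-specific binding.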
# [1] = molecular target: T2, Human neuropeptide Y (NPY-Y1) (Homo sapiens, UniProt P25929); experiment: Radioligand binding, human neuropeptide Y NPY-Y1 membranes, FlashPlate, [125I]-PYY; conditions: compound at 10 μM; [125I]-PYY
# T2 construct: purchased Perkin Elmer Biosignal
# T2 sequence (P25929 1-384): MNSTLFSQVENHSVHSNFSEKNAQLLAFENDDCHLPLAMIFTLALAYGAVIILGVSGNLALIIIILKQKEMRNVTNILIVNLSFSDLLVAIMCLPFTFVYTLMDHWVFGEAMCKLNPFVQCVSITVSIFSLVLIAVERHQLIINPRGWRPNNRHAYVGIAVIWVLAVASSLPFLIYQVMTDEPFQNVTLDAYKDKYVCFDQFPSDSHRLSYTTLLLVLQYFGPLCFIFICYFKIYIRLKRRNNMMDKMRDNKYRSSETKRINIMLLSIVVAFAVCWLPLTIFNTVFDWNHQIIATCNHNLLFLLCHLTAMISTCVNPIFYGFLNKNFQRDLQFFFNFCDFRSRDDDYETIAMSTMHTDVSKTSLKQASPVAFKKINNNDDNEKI
# Summary of the method: as §1
# Human neurokinin (NK1) = molecular target: T3, Human neurokinin (NK1) (Homo sapiens, UniProt P25103); experiment: Radioligand binding, human neurokinin NK1 membranes, filtration, [125I]-Substance P; conditions: compound at 10 μM; [125I]-Substance P
# T3 construct: purchased Perkin Elmer Biosignal
# T3 sequence (P25103 whole entry): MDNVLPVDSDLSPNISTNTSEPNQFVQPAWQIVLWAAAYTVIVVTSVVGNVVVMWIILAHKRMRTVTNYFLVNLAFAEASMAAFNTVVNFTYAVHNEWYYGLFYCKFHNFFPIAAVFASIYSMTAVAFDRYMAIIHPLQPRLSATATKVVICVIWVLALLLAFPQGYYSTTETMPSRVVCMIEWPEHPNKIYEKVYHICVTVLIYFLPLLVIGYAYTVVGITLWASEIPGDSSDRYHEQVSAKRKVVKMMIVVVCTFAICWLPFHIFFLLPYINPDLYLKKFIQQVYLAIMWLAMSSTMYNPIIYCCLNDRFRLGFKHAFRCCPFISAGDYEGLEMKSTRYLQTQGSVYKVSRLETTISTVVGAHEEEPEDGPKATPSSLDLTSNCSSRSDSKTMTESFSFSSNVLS
# Summary of the method: (§2)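 Membranes from cloned human receptors were incubated with compound and radioligand for 1 hour at room temperature. Bound ligand was collected on 0.3% PEI-soaked filters, washed with cold 50 mM Tris-HCl pH 7.4, and counted by scintillation. Percent inhibition was computed against DMSO totals and reference-ligand nonspecific wells.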
# Human μ-opioid (MOP) = molecular target: T4, Human μ-opioid (MOP) (Homo sapiens, UniProt P35372); experiment: Radioligand binding, human μ-opioid (MOP) membranes, FlashPlate, [3H]-Naloxone; conditions: compound at 10 μM, [3H]-Naloxone
# T4 construct: purchased Perkin Elmer Biosignal
# T4 sequence (P35372 whole entry): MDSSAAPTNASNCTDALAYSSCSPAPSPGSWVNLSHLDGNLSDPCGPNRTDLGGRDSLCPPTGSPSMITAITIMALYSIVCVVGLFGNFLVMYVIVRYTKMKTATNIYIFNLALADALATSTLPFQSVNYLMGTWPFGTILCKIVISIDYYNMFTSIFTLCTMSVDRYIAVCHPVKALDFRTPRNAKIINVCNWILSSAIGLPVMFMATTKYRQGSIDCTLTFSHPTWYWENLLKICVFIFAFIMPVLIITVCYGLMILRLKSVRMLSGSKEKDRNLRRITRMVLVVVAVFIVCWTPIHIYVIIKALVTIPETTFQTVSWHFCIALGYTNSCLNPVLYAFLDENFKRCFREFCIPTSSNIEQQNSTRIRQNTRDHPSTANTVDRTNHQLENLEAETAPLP
# Summary of the method: as §1
# [2] = molecular target: T5, Human melanin-concentrating hormone (MCH1) (Homo sapiens, UniProt Q99705); experiment: Radioligand binding, human melanin-concentrating hormone MCH1 membranes, FlashPlate, [125I]-S36057; conditions: compound at 10 μM; [125I]-S36057
# T5 construct: purchased Perkin Elmer Biosignal
# T5 sequence (Q99705 whole entry): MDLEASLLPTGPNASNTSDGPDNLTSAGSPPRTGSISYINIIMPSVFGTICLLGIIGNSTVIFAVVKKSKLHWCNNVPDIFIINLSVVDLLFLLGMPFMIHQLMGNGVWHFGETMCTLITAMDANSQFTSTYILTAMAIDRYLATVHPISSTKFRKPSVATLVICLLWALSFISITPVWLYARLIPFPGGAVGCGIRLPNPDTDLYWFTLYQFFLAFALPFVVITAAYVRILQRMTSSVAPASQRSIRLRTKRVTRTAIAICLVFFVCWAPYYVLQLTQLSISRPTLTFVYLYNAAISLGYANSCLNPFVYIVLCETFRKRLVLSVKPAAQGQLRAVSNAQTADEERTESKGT
# Summary of the method: as §1
# Human Melanocortin (MC3) = molecular target: T6, Human Melanocortin (MC3) (Homo sapiens, UniProt P41968); experiment: Radioligand binding, human melanocortin MC3 membranes, FlashPlate, [125I]-NDP-αMSH; conditions: compound at 10 μM; [125I]-NDP-αMSH
# T6 construct: purchased Perkin Elmer Biosignal
# T6 sequence (P41968 whole entry): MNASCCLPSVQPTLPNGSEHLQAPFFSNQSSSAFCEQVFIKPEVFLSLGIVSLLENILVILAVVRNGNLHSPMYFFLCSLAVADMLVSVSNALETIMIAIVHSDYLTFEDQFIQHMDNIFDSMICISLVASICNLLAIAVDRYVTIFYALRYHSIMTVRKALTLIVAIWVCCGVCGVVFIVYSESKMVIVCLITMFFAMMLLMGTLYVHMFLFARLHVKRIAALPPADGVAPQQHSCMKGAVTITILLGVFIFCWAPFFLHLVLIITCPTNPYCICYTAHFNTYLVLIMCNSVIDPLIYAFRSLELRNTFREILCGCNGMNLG
# Summary of the method: as §1
# Mouse urotensin (mUR2) = molecular target: T7, Mouse urotensin (mUR2) (Mus musculus, UniProt Q8VIH9); experiment: Radioligand binding, mouse urotensin mUR2 membranes, FlashPlate, [125I]-Urotensin II; conditions: compound at 10 μM; [125I]-Urotensin II
# T7 construct: purchased Perkin Elmer Biosignal
# T7 sequence (Q8VIH9 1-385): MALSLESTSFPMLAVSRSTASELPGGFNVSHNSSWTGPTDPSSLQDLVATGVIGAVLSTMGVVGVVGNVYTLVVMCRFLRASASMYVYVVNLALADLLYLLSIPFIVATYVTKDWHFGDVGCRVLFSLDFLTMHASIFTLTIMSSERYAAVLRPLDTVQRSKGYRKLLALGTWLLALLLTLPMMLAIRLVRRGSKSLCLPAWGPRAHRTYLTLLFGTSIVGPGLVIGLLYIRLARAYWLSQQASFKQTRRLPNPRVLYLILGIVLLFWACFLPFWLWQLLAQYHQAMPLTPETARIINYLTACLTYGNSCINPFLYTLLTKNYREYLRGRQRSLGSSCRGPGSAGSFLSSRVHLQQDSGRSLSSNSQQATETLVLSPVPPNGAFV
# Summary of the method: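 Cloned mouse urotensin (mUR2) receptor membranes from Perkin Elmer Biosignal were immobilized in FlashPlate microplates using a proprietary coating. Each well got 19.5 μl buffer, then 0.5 μl of DMSO, reference ligand, or compound. Adding 5 μl of [125I]-Urotensin II, diluted to 5× final concentration in binding buffer, started binding. Plates were sealed with TopSeal-A and incubated 1 hour at room temperature in the dark. Wells were counted for 30 seconds each on a TopCount after a 60-second delay, and percentage inhibition was calculated.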
# Human Melanocortin (MC4) = molecular target: T8, Human Melanocortin (MC4) (Homo sapiens, UniProt P32245); experiment: Radioligand binding, human melanocortin MC4 membranes, FlashPlate, [125I]-NDP-αMSH; conditions: compound at 10 μM; [125I]-NDP-αMSH
# T8 construct: purchased Perkin Elmer Biosignal
# T8 sequence (P32245 whole entry): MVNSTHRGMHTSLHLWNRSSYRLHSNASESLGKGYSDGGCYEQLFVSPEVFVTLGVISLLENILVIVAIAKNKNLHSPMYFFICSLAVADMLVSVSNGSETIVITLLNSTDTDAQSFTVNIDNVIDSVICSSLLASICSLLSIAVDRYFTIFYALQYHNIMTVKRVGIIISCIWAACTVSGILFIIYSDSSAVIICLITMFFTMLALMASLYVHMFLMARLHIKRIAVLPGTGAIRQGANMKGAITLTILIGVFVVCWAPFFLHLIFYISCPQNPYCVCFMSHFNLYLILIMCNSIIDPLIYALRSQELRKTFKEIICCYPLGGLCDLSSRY
# Summary of the method: as §1
# Human melanocortin (MC5) = molecular target: T9, Human melanocortin (MC5) (Homo sapiens, UniProt P33032); experiment: Radioligand binding, human melanocortin MC5 membranes, FlashPlate, [125I]-NDP-αMSH; conditions: compound at 10 μM; [125I]-NDP-αMSH
# T9 construct: purchased Perkin Elmer Biosignal
# T9 sequence (P33032 whole entry): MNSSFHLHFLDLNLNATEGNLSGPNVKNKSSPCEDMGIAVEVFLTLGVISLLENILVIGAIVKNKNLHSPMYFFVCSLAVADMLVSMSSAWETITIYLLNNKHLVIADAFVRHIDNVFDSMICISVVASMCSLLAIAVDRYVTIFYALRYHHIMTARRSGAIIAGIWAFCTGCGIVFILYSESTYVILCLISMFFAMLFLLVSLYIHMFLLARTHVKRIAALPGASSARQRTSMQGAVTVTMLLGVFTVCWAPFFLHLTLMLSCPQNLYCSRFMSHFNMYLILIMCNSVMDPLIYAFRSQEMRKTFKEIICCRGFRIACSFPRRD
# Summary of the method: as §1
# Human κ-Opioid (KOP) = molecular target: T10, Human κ-Opioid (KOP) (Homo sapiens, UniProt P41145); experiment: Radioligand binding, human κ-opioid (KOP) membranes, filtration, [3H]-Diprenorphine; conditions: compound at 10 μM; [3H]-Diprenorphine
# T10 construct: purchased Perkin Elmer Biosignal
# T10 sequence (P41145 whole entry): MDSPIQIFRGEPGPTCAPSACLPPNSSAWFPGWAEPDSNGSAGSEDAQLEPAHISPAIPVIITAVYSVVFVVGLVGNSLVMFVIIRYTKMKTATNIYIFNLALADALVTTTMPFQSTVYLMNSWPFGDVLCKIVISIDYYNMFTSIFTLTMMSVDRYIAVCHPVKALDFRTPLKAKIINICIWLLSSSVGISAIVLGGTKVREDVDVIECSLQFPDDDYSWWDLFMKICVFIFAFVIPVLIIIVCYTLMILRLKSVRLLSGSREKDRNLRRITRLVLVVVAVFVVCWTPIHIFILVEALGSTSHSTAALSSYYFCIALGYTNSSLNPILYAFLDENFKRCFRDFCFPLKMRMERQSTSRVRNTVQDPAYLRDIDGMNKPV
# Summary of the method: as §2
# Human opioid (ORL1) = molecular target: T11, Human opioid (ORL1) (Homo sapiens, UniProt P41146); experiment: Radioligand binding, human opioid ORL1 membranes, FlashPlate, [125I]-Nociceptin; conditions: compound at 10 μM; [125I]-Nociceptin
# T11 construct: purchased Perkin Elmer Biosignal
# T11 sequence (P41146 whole entry): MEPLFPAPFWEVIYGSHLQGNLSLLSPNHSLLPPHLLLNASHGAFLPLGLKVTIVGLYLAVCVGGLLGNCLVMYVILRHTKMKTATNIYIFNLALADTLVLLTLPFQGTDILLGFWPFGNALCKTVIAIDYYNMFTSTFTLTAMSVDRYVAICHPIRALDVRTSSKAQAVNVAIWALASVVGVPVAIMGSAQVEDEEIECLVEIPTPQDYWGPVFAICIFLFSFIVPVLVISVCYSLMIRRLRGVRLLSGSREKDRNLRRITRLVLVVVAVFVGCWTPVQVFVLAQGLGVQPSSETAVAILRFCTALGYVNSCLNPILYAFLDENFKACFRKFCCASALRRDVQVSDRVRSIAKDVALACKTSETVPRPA
# Summary of the method: as §1
# T1 sequence (P41143 whole entry): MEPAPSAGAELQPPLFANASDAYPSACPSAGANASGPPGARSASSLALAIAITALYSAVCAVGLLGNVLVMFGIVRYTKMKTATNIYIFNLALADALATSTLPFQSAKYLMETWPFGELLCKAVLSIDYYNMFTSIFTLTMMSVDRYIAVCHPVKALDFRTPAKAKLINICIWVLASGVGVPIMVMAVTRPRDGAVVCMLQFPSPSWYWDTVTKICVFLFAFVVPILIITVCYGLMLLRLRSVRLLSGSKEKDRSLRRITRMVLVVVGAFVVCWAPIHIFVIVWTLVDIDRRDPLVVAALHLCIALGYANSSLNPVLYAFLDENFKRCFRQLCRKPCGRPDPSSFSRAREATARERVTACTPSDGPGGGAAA
Compound,"A1: inhibition of radioligand binding, human δ-opioid (DOP) (Human δ-opioid (DOP))","A9: inhibition of radioligand binding, human neuropeptide Y (NPY-Y1) [1]","A8: inhibition of radioligand binding, human neurokinin (NK1) (Human neurokinin (NK1))","A7: inhibition of radioligand binding, human μ-opioid (MOP) (Human μ-opioid (MOP))","A6: inhibition of radioligand binding, human melanin-concentrating hormone (MCH1) [2]","A3: inhibition of radioligand binding, human melanocortin (MC3) (Human Melanocortin (MC3))","A11: inhibition of radioligand binding, mouse urotensin (mUR2) (Mouse urotensin (mUR2))","A4: inhibition of radioligand binding, human melanocortin (MC4) (Human Melanocortin (MC4))","A5: inhibition of radioligand binding, human melanocortin (MC5) (Human melanocortin (MC5))","A2: inhibition of radioligand binding, human κ-opioid (KOP) (Human κ-Opioid (KOP))","A10: inhibition of radioligand binding, human opioid (ORL1) (Human opioid (ORL1))","A1: inhibition of radioligand binding, human δ-opioid (DOP) (Human δ-opioid (DOP); 10 µM)","A7: inhibition of radioligand binding, human μ-opioid (MOP) (Human μ-opioid (MOP); 10 µM)"
CSC1O[C@H](COCc2ccc3ccccc3c2)[C@@H](O)[C@@H](OCc2ccc(-c3ccccc3)cc2)[C@H]1NC(=O)CCN (stereo partly drawn) [compound 297],− (“−” indicates less than 50% inhibition at 10 μM),− (“−” indicates less than 50% inhibition at 10 μM),+ (“+” indicates greater than 50% inhibition at 10 μM),− (“−” indicates less than 50% inhibition at 10 μM),− (“−” indicates less than 50% inhibition at 10 μM),− (“−” indicates less than 50% inhibition at 10 μM),− (“−” indicates less than 50% inhibition at 10 μM),− (“−” indicates less than 50% inhibition at 10 μM),− (“−” indicates less than 50% inhibition at 10 μM),− (“−” indicates less than 50% inhibition at 10 μM),− (“−” indicates less than 50% inhibition at 10 μM),–,–
NCCCC(=O)NC1C(OCc2ccccc2)OC(COCc2ccc3ccccc3c2)C(O)C1OCc1ccc2ccccc2c1 (stereo not drawn) [compound 375],− (“−” indicates less than 50% inhibition at 10 μM),− (“−” indicates less than 50% inhibition at 10 μM),+ (“+” indicates greater than 50% inhibition at 10 μM),− (“−” indicates less than 50% inhibition at 10 μM),− (“−” indicates less than 50% inhibition at 10 μM),− (“−” indicates less than 50% inhibition at 10 μM),− (“−” indicates less than 50% inhibition at 10 μM),+ (“+” indicates greater than 50% inhibition at 10 μM),+ (“+” indicates greater than 50% inhibition at 10 μM),− (“−” indicates less than 50% inhibition at 10 μM),− (“−” indicates less than 50% inhibition at 10 μM),–,–
N=C(N)NCCC(=O)N[C@H]1C(OCc2ccc(Cl)cc2)O[C@H](COCc2ccccc2)[C@@H](O)[C@@H]1OCc1ccc(-c2ccccc2)cc1 (stereo partly drawn) [compound 536],–,− (“−” indicates less than 50% inhibition at 10 μM),+ (“+” indicates greater than 50% inhibition at 10 μM),–,+ (“+” indicates greater than 50% inhibition at 10 μM),+ (“+” indicates greater than 50% inhibition at 10 μM),− (“−” indicates less than 50% inhibition at 10 μM),+ (“+” indicates greater than 50% inhibition at 10 μM),+ (“+” indicates greater than 50% inhibition at 10 μM),+ (“+” indicates greater than 50% inhibition at 10 μM),− (“−” indicates less than 50% inhibition at 10 μM),− (“−” indicates less than 50% inhibition at 10 μM),− (“−” indicates less than 50% inhibition at 10 μM)
